“And” between values parts separate entries of the source, which are not always exact repeats. Equal entries are not always repeated. Toxic doses and inconclusive results are not listed. No stated cut-off is given here; in the data, active means T/C of 150% or more; inactive means T/C below 125%.
System: L1210 leukemia ip in BDF1 mice, survival T/C
Assay: NCI In Vivo Anticancer Drug Screen. Data for tumor model L1210 Leukemia (intraperitoneal) in B6D2F1 (BDF1) mice
Settings: endpoint: mean survival time, higher = longer survival
Method in brief: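 Value reflects the ratio of survival in compound-treated mice to survival in vehicle-treated controls, with both groups carrying the same transplanted tumor.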

[1] = dose: 200.0 mg/kg/injection, schedule: Q01DX001 (ip), vehicle: saline
[2] = dose: 50.0 mg/kg/injection, schedule: Q01DX001 (ip), vehicle: saline
[3] = dose: 100.0 mg/kg/injection, schedule: Q01DX001 (ip), vehicle: saline
[4] = dose: 400.0 mg/kg/injection, schedule: Q01DX001 (ip), vehicle: saline
[5] = dose: 100.0 mg/kg/injection, schedule: Q04DX003 (ip), vehicle: saline
[6] = dose: 200.0 mg/kg/injection, schedule: Q04DX003 (ip), vehicle: saline
[7] = dose: 400.0 mg/kg/injection, schedule: Q04DX003 (ip), vehicle: saline
[8] = dose: 25.0 mg/kg/injection, schedule: Q04DX002 (ip), vehicle: saline
[9] = dose: 100.0 mg/kg/injection, schedule: Q01DX009 (ip), vehicle: Klucel (hydroxypropylcellulose) (HPC)
[10] = dose: 200.0 mg/kg/injection, schedule: Q01DX009 (ip), vehicle: Klucel (hydroxypropylcellulose) (HPC)
[11] = dose: 400.0 mg/kg/injection, schedule: Q01DX009 (ip), vehicle: Klucel (hydroxypropylcellulose) (HPC)
[12] = dose: 100.0 mg/kg/injection, schedule: Q01DX001 (ip), vehicle: Klucel (hydroxypropylcellulose) (HPC)
[13] = dose: 200.0 mg/kg/injection, schedule: Q01DX001 (ip), vehicle: Klucel (hydroxypropylcellulose) (HPC)
[14] = dose: 100.0 mg/kg/injection, schedule: Q01DX009 (ip), vehicle: saline with Tween-80
[15] = dose: 100.0 mg/kg/injection, schedule: Q04DX003 (ip), vehicle: saline with Tween-80
[16] = dose: 200.0 mg/kg/injection, schedule: Q01DX009 (ip), vehicle: saline with Tween-80
[17] = dose: 200.0 mg/kg/injection, schedule: Q04DX003 (ip), vehicle: saline with Tween-80
[18] = dose: 400.0 mg/kg/injection, schedule: Q04DX003 (ip), vehicle: saline with Tween-80
[19] = dose: 12.5 mg/kg/injection, schedule: Q04DX003 (ip), vehicle: Klucel (hydroxypropylcellulose) (HPC)
[20] = dose: 25.0 mg/kg/injection, schedule: Q04DX003 (ip), vehicle: Klucel (hydroxypropylcellulose) (HPC)

Measured: T/C

CCCCNc1ncnc2c1cnn2C
inactive: dose: 31.25 mg/kg/injection, schedule: Q01DX010 (ip), vehicle: saline 94 % of control and 105 % of control | dose: 50.0 mg/kg/injection, schedule: Q01DX Z (ip), vehicle: saline 102 % of control | dose: 62.5 mg/kg/injection, schedule: Q01DX010 (ip), vehicle: saline 100 % of control | dose: 75.0 mg/kg/injection, schedule: Q01DX Z (ip), vehicle: saline 100 % of control | dose: 100.0 mg/kg/injection, schedule: Q01DX Z (ip), vehicle: saline 111 % of control | dose: 125.0 mg/kg/injection, schedule: Q01DX010 (ip), vehicle: saline 97 % of control and 113 % of control | [1] 98 % of control

O=c1c([N+](=O)[O-])c[nH]c2cc(Cl)ccc12
inactive: [2] 92 % of control | [3] 101 % of control | [1] 103 % of control | [4] 97 % of control

CC1=CC(C)(C)SC(=S)N1
inactive: dose: 75.0 mg/kg/injection, schedule: Q01DX009 (ip), vehicle: Klucel (hydroxypropylcellulose) (HPC) 98 % of control | [5] 111 % of control | dose: 150.0 mg/kg/injection, schedule: Q01DX009 (ip), vehicle: Klucel (hydroxypropylcellulose) (HPC) 104 % of control | [6] 104 % of control | dose: 300.0 mg/kg/injection, schedule: Q01DX009 (ip), vehicle: Klucel (hydroxypropylcellulose) (HPC) 108 % of control | [7] 96 % of control

O=C(Nc1ccc(Br)cc1)c1cc(Br)cc(Br)c1O
inactive: dose: 1.56 mg/kg/injection, schedule: Q04DX002 (ip), vehicle: saline 100 % of control | dose: 3.12 mg/kg/injection, schedule: Q04DX002 (ip), vehicle: saline 100 % of control | dose: 6.25 mg/kg/injection, schedule: Q04DX002 (ip), vehicle: saline 97 % of control | dose: 12.5 mg/kg/injection, schedule: Q04DX002 (ip), vehicle: saline 103 % of control and 107 % of control | [8] 104 % of control and 89 % of control

Cc1ccc(C(O)C(=O)O)cc1 (stereo not drawn)
inactive: dose: 75.0 mg/kg/injection, schedule: Q01DX001 (ip), vehicle: acetone 100 % of control | dose: 150.0 mg/kg/injection, schedule: Q01DX001 (ip), vehicle: acetone 96 % of control

N#CCCN(C(=S)Nc1ccc(Cl)c(Cl)c1)C1CCCCC1
inactive: [9] 107 % of control | [10] 113 % of control | [11] 103 % of control

CN(C)C(=S)SCC(=O)NC(CO)C(=O)O (stereo not drawn)
inactive: dose: 100.0 mg/kg/injection, schedule: Q04DX002 (ip), vehicle: saline with Tween-80 100 % of control | dose: 200.0 mg/kg/injection, schedule: Q04DX002 (ip), vehicle: saline with Tween-80 107 % of control | dose: 400.0 mg/kg/injection, schedule: Q04DX002 (ip), vehicle: saline with Tween-80 111 % of control

O=[N+]([O-])c1ccc2c(c1)/C(=N\O)c1cc(F)ccc1-2
inactive: dose: 100.0 mg/kg/injection, schedule: Q01DX001 (ip), vehicle: carboxymethylcellulose (CMC) 103 % of control | dose: 200.0 mg/kg/injection, schedule: Q01DX001 (ip), vehicle: carboxymethylcellulose (CMC) 105 % of control | dose: 400.0 mg/kg/injection, schedule: Q01DX001 (ip), vehicle: carboxymethylcellulose (CMC) 98 % of control

CC(=O)NC(C)(SC(c1ccccc1)c1ccccc1)C(=O)O (stereo not drawn)
inactive: [12] 100 % of control | [13] 100 % of control | dose: 400.0 mg/kg/injection, schedule: Q01DX001 (ip), vehicle: Klucel (hydroxypropylcellulose) (HPC) 105 % of control

O=C(/C=C(\Cl)C(=O)NO)NO
inactive: dose: 100.0 mg/kg/injection, schedule: Q01DX009 (ip), vehicle: acetone 102 % of control

CC(=O)OC1C=CCc2c(O)c3c(c(O)c21)C(=O)c1ccccc1C3=O (stereo not drawn)
inactive: dose: 100.0 mg/kg/injection, schedule: Q01DX009 (ip), vehicle: saline 91 % of control | [5] 90 % of control | dose: 200.0 mg/kg/injection, schedule: Q01DX009 (ip), vehicle: saline 109 % of control | [6] 88 % of control | dose: 400.0 mg/kg/injection, schedule: Q01DX009 (ip), vehicle: saline 103 % of control | [7] 91 % of control

Nc1ccc2ncsc2c1
inactive: [14] 114 % of control | [15] 102 % of control | [16] 88 % of control | [17] 95 % of control | [18] 98 % of control

CC(=O)O[C@@H]1CC[C@]2(C)C(=CC[C@@H]3C4CC5O[C@]6(CCC(C)CN6)C(C)C5[C@]4(C)CCC32)C1 (stereo partly drawn)
inactive: dose: 100.0 mg/kg/injection, schedule: Q04DX002 (ip), vehicle: Klucel (hydroxypropylcellulose) (HPC) 93 % of control | dose: 200.0 mg/kg/injection, schedule: Q04DX002 (ip), vehicle: Klucel (hydroxypropylcellulose) (HPC) 89 % of control | dose: 400.0 mg/kg/injection, schedule: Q04DX002 (ip), vehicle: Klucel (hydroxypropylcellulose) (HPC) 93 % of control

CC(=O)Nc1cc(Cl)c(Cl)cc1N
inactive: [9] 95 % of control | [10] 98 % of control | [11] 96 % of control

COc1ccccc1CNC1CCCCC1
inactive: dose: 75.0 mg/kg/injection, schedule: Q01DX001 (ip), vehicle: saline 92 % of control

CCOC(=O)CC(O)(COC)c1ccccc1 (stereo not drawn)
inactive: [2] 114 % of control | [3] 100 % of control | [1] 109 % of control | [4] 97 % of control

CC(=O)OCC(O)C(O)C(O)C(O)CO (stereo not drawn)
inactive: [15] 91 % of control | [17] 94 % of control | [18] 91 % of control

CCCCCCCNN=C(N)N
inactive: [3] 98 % of control | [5] 111 % of control | [1] 98 % of control | [6] 95 % of control | [4] 97 % of control | [7] 117 % of control

OC(c1ccc(F)cc1)(c1ccc(F)cc1)C1CC1
inactive: dose: 100.0 mg/kg/injection, schedule: Q01DX001 (ip), vehicle: saline with Tween-80 106 % of control | dose: 200.0 mg/kg/injection, schedule: Q01DX001 (ip), vehicle: saline with Tween-80 105 % of control

O=C1CC2CCCC1C2 (stereo not drawn)
inactive: [3] 98 % of control | [1] 109 % of control | [4] 112 % of control

NS(=O)(=O)c1ccc(NC(=O)Nc2cccc(CNC(=O)Cc3ccc(Cl)cc3C(=O)O)c2)cc1
inactive: dose: 50.0 mg/kg/injection, schedule: Q01DX001 (ip), vehicle: Klucel (hydroxypropylcellulose) (HPC) 104 % of control | [12] 109 % of control | [13] 90 % of control

Nc1ccc(S(=O)(=O)c2cc(O)c3ccccc3c2O)cc1
inactive: dose: 12.5 mg/kg/injection, schedule: Q01DX009 (ip), vehicle: saline 91 % of control | [19] 103 % of control | dose: 25.0 mg/kg/injection, schedule: Q01DX009 (ip), vehicle: saline 91 % of control | [20] 102 % of control | dose: 50.0 mg/kg/injection, schedule: Q04DX003 (ip), vehicle: Klucel (hydroxypropylcellulose) (HPC) 92 % of control

COc1cc(/C=N/NC(=O)c2cc(OC)c(OC)c(OC)c2)ccc1O
inactive: [14] 93 % of control | [16] 93 % of control | dose: 400.0 mg/kg/injection, schedule: Q01DX009 (ip), vehicle: saline with Tween-80 90 % of control

CNC(=O)OCC1=CC(=O)C(OC)=CC1=O
inactive: dose: 0.37 mg/kg/injection, schedule: Q01DX009 (ip), vehicle: Klucel (hydroxypropylcellulose) (HPC) 91 % of control | dose: 0.75 mg/kg/injection, schedule: Q01DX009 (ip), vehicle: Klucel (hydroxypropylcellulose) (HPC) 98 % of control | [19] 92 % of control | dose: 25.0 mg/kg/injection, schedule: Q01DX009 (ip), vehicle: Klucel (hydroxypropylcellulose) (HPC) 88 % of control | [20] 103 % of control

NCC1OC(n2ccc(=O)[nH]c2=O)CC1O (stereo not drawn)
inactive: [8] 93 % of control | dose: 50.0 mg/kg/injection, schedule: Q04DX002 (ip), vehicle: saline 101 % of control | dose: 100.0 mg/kg/injection, schedule: Q04DX002 (ip), vehicle: saline 108 % of control

COc1ccc(N=Cc2cccc(OC)c2O)cc1.COc1ccc(N=Cc2cccc(OC)c2O)cc1.[Co]
inactive: dose: 50.0 mg/kg/injection, schedule: Q04DX003 (ip), vehicle: saline with Tween-80 92 % of control | [17] 92 % of control | [18] 95 % of control

CCCCCCCCCCCCCSc1ccc(Br)cc1
inactive: [15] 96 % of control | [17] 96 % of control | [18] 96 % of control

From PubChem BioAssay AID248 (DTP/NCI, 2004)
